US7652047B2, “Phenylamino isothiazole carboxamidines as MEK inhibitors” (Ardea Biosciences, Inc., priority 2005, dated 2010)

Target: T1, MEK1^CA (human GST-MEK1, constitutively active, Ser218Asp and Ser222Asp) (Homo sapiens, UniProt Q02750, S218D/S222D)
T1 construct: GST; made in house; host or cells: Escherichia coli
Experiment: MEK1 enzymatic activity assay (MEK1^CA / ERK2 / MBP, [γ-33P]ATP incorporation)
Format: biochemical
Details: Table 1, compounds of formula I; read-out: Avg IC50
From the text: Materials and preparation of reagents: Human GST-MEK1 and the constitutively active allele GST-MEK1^CA (harboring the mutations Ser218Asp and Ser222Asp) were subcloned into the […] expression vector pGEM4Z (Promega, Madison, Wis.) from the wild type human MEK1 cDNA. GST-MEK1^CA was expressed in Escherichia coli and partially purified using Glutathione Sepharose 4B affinity resin (Amersham Pharmacia Biotech, Piscataway, N.J.). The ERK2 allele was subcloned from MAPK2/Erk2 cDNA (wild type) in pUSEamp (Upstate Biotechnology, Inc., Waltham, Mass.) into the vector pET21a (Novagen, Madison, Wis.) resulting in an N-terminal histidine-tagged mouse ERK2 allele. […] Myelin basic protein (MBP) was purchased from Gibco BRL (Rockville, Md.). EasyTides adenosine 5′-triphosphate (ATP) ([γ-^33P]) (NEN Perkin Elmer, Wellesley, Mass.) was the source of radiolabel for all kinase reactions. Activated Raf-1 (truncated) and activated MAPKinase 2/ERK2 were purchased from Upstate, Inc. (Lake Placid, N.Y.). 4-20% Criterion Precast gels were purchased from Bio-Rad (Hercules, Calif.).
A typical 25-microliter assay contained 0.002 nanomoles MEK1^CA, 0.02 nanomoles ERK2, 0.25 nanomoles MBP, 0.25 nanomoles unlabeled ATP, and 0.1 μCi [γ^33P] ATP. The screening assay essentially comprised four additions. Five μl of diluted compound were dispensed to 96-well assay plates. Ten μl of 2.5× enzyme cocktail (MEK1^CA and ERK2 only) were then added to each well followed by a pre-incubation for 30 minutes at ambient temperature. […] Finally, 100 μl of 10% trichloroacetic acid (TCA) were added and incubated for 30 minutes at room temperature to halt the reaction and precipitate radiolabeled protein products. Reaction products were harvested on glass fiber 96 well filter plates prewetted with water and 1% pyrophosphate. The filter plate was then washed 5 times with water. Water was displaced by absolute ethanol and the plate was allowed to air dry for 30 minutes at room temperature. A back seal was applied manually and 40 μl of scintillation cocktail were dispensed to each well. A top seal was applied and the plate was counted in the TopCount for two seconds per well.

T1 sequence (Q02750 whole entry S218D/S222D): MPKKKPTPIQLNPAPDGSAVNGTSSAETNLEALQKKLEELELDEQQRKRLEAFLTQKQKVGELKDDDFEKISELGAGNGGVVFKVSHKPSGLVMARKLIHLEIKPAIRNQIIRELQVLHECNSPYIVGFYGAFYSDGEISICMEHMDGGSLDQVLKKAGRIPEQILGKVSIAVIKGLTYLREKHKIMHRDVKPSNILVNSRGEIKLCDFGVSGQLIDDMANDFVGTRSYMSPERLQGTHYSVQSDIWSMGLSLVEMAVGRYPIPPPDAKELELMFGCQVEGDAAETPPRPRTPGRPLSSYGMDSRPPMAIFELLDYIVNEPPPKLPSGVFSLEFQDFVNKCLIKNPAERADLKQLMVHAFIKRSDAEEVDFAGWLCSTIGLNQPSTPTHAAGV

Row | Structure (SMILES) | IC50
1 | CNC(=N)c1c(O)nsc1Nc1ccc(C)cc1 [Cpd 1] | 100 to 500 nM
2 | Cc1ccc(Nc2snc(O)c2C(=N)NC2CCCC2)cc1 [Cpd 2] | 100 to 500 nM
3 | Cc1ccc(Nc2snc(O)c2C(=N)NN2CCOCC2)cc1 [Cpd 5] | 100 to 500 nM
4 | Cc1ccc(Nc2snc(O)c2C(=N)N2CCc3ccccc3C2)cc1 [Cpd 8] | > 500 nM
5 | N=C(NCCCCO)c1c(O)nsc1Nc1ccc(Oc2ccccc2)cc1 [Cpd 9] | 1 to 100 nM
6 | N=C(NC1CCCCC1)c1c(O)nsc1Nc1ccc(Oc2ccccc2)cc1 [Cpd 11] | 1 to 100 nM
7 | CC(CNC(=N)c1c(O)nsc1Nc1ccc(Oc2ccccc2)cc1)c1ccccc1 (stereo not shown) [Cpd 15] | 1 to 100 nM
8 | CCCCNC(=N)c1c(O)nsc1Nc1ccc(Oc2ccccc2)cc1 [Cpd 27] | 100 to 500 nM
9 | CC(C)NC(=N)c1c(O)nsc1Nc1ccc(Oc2ccccc2)cc1 [Cpd 28] | 1 to 100 nM
10 | N=C(NCCCO)c1c(O)nsc1Nc1ccc(Oc2ccccc2)cc1 [compound 31] | 1 to 100 nM
11 | N=C(NCCCCCCO)c1c(O)nsc1Nc1ccc(Oc2ccccc2)cc1 [compound 32] | 1 to 100 nM
12 | C[C@H](NC(=N)c1c(O)nsc1Nc1ccc(Oc2ccccc2)cc1)c1ccccc1 [compound 34] | 100 to 500 nM
13 | CC(C)CC(C)NC(=N)c1c(O)nsc1Nc1ccc(Oc2ccccc2)cc1 (stereo not shown) [compound 35] | 100 to 500 nM
14 | N=C(NCCCN1CCCC1=O)c1c(O)nsc1Nc1ccc(Oc2ccccc2)cc1 [compound 39] | 1 to 100 nM
15 | N=C(NCC(O)CO)c1c(O)nsc1Nc1ccc(Oc2ccccc2)cc1 (stereo not shown) [compound 40] | 1 to 100 nM
16 | CC1(C)C2CCC1[C@H](CNC(=N)c1c(O)nsc1Nc1ccc(Oc3ccccc3)cc1)CC2 (stereo partly shown) [compound 46] | 1 to 100 nM
17 | CC1(C)OCC(CNC(=N)c2c(O)nsc2Nc2ccc(Oc3ccccc3)cc2)O1 (stereo not shown) [compound 47] | 1 to 100 nM
18 | CCOCCCNC(=N)c1c(O)nsc1Nc1ccc(Oc2ccccc2)cc1 [compound 49] | 1 to 100 nM
19 | CC(CCc1ccccc1)NC(=N)c1c(O)nsc1Nc1ccc(Oc2ccccc2)cc1 (stereo not shown) [compound 50] | 1 to 100 nM
20 | CC(C)OCCCNC(=N)c1c(O)nsc1Nc1ccc(Oc2ccccc2)cc1 [compound 51] | 1 to 100 nM
21 | CCC(C)CNC(=N)c1c(O)nsc1Nc1ccc(Oc2ccccc2)cc1 (stereo not shown) [compound 52] | 1 to 100 nM
22 | N=C(NCCN1CCCCC1)c1c(O)nsc1Nc1ccc(Oc2ccccc2)cc1 [compound 53] | 100 to 500 nM
23 | N=C(NCCN1CCOCC1)c1c(Nc2ccc(Oc3ccccc3)cc2)s[nH]c1=O [compound 54] | 100 to 500 nM
24 | N=C(NCC(O)CO)c1c(O)nsc1Nc1ccc(Br)cc1 (stereo not shown) [compound 55] | 100 to 500 nM
25 | Cc1ccc(Nc2sncc2C(=N)NC2CCCC2)cc1 [compound 56] | > 500 nM
26 | N=C(NCC1CCCCC1)c1c(O)nsc1Nc1ccc(CO)cc1 [compound 57] | > 500 nM

The next lines start with the values.

Row | IC50 | Structure (SMILES)
27 | > 500 nM | Cc1ccc(Nc2snc(O)c2/C(N)=N/O)cc1 [Cpd 3]
28 | 100 to 500 nM | Cc1ccc(Nc2snc(O)c2C(=N)NCCN2CCOCC2)cc1 [Cpd 4]
29 | 1 to 100 nM | N=C(NN1CCOCC1)c1c(O)nsc1Nc1ccc(Oc2ccccc2)cc1 [Cpd 6]
30 | 100 to 500 nM | Cc1ccc(Nc2snc(O)c2C(=N)NN2CCCCC2)cc1 [Cpd 7]
31 | 1 to 100 nM | CCCCCCCNC(=N)c1c(O)nsc1Nc1ccc(Oc2ccccc2)cc1 [Cpd 10]
32 | 1 to 100 nM | N=C(NC1CCCC1)c1c(O)nsc1Nc1ccc(Oc2ccccc2)cc1 [Cpd 12]
33 | 1 to 100 nM | N=C(NCCC1=CCCCC1)c1c(O)nsc1Nc1ccc(Oc2ccccc2)cc1 [Cpd 13]
34 | 100 to 500 nM | N=C(NCCc1ccccc1)c1c(O)nsc1Nc1ccc(Oc2ccccc2)cc1 [Cpd 14]
35 | 1 to 100 nM | N=C(NC1CCC1)c1c(O)nsc1Nc1ccc(Oc2ccccc2)cc1 [Cpd 16]
36 | 100 to 500 nM | N=C(NCCc1cccc(F)c1)c1c(O)nsc1Nc1ccc(Oc2ccccc2)cc1 [Cpd 17]
37 | 100 to 500 nM | N=C(NCCc1cccs1)c1c(O)nsc1Nc1ccc(Oc2ccccc2)cc1 [Cpd 18]
38 | 1 to 100 nM | N=C(NCC1CC1)c1c(O)nsc1Nc1ccc(Oc2ccccc2)cc1 [Cpd 19]
39 | 100 to 500 nM | N=C(NCc1ccccc1)c1c(O)nsc1Nc1ccc(Oc2ccccc2)cc1 [Cpd 20]
40 | 1 to 100 nM | N=C(NCc1ccc(C(F)(F)F)cc1)c1c(O)nsc1Nc1ccc(Oc2ccccc2)cc1 [Cpd 21]
41 | 1 to 100 nM | N=C(N[C@@H]1CC2CCC1C2)c1c(O)nsc1Nc1ccc(Oc2ccccc2)cc1 (stereo partly shown) [Cpd 22]
42 | 1 to 100 nM | N=C(NC1CCCCCC1)c1c(O)nsc1Nc1ccc(Oc2ccccc2)cc1 [Cpd 23]

Row | IC50 | Structure (SMILES)
43 | > 500 nM | Cn1sc(Nc2ccc(Oc3ccccc3)cc2)c(C(=N)NC2CCCC2)c1=O [Cpd 24]
44 | 1 to 100 nM | N=C(NCC1CCCO1)c1c(O)nsc1Nc1ccc(Oc2ccccc2)cc1 (stereo not shown) [Cpd 25]
45 | > 500 nM | N=C(NCCN1CCOCC1)c1c(Nc2ccc(Oc3ccccc3)cc2)s[nH]c1=O [Cpd 26]
46 | 100 to 500 nM | CC(NC(=N)c1c(O)nsc1Nc1ccc(Oc2ccccc2)cc1)c1ccc(F)cc1 (stereo not shown) [compound 29]
47 | 100 to 500 nM | CCOC(=O)N1CCC(NC(=N)c2c(O)nsc2Nc2ccc(Oc3ccccc3)cc2)CC1 [compound 30]
48 | 1 to 100 nM | N=C(NCCO)c1c(O)nsc1Nc1ccc(Oc2ccccc2)cc1 [compound 33]
49 | 100 to 500 nM | N=C(NCCOc1ccccc1)c1c(O)nsc1Nc1ccc(Oc2ccccc2)cc1 [compound 36]
50 | 1 to 100 nM | N=C(NCC1CCCCC1)c1c(O)nsc1Nc1ccc(Oc2ccccc2)cc1 [compound 37]
51 | 100 to 500 nM | N=C(NCc1ccccn1)c1c(O)nsc1Nc1ccc(Oc2ccccc2)cc1 [compound 38]
52 | 100 to 500 nM | CC(C)(C)CCNC(=N)c1c(O)nsc1Nc1ccc(Oc2ccccc2)cc1 [compound 41]
53 | 1 to 100 nM | CC(C)(C)CCNC(=N)c1c(O)nsc1Nc1ccc(Oc2ccccc2)cc1 [compound 42]
54 | 1 to 100 nM | CC(C)CCNC(=N)c1nsc(Nc2ccc(Oc3ccccc3)cc2)c1O [compound 43]
55 | > 500 nM | N=C(NC1CC1)c1c(O)nsc1Nc1ccc(Oc2ccccc2)cc1 [compound 44]
56 | 1 to 100 nM | N=C(NCc1cccc2ccccc12)c1c(O)nsc1Nc1ccc(Oc2ccccc2)cc1 [compound 45]
57 | 1 to 100 nM | N=C(NCC(c1ccccc1)c1ccccc1)c1c(O)nsc1Nc1ccc(Oc2ccccc2)cc1 [compound 48]

Same assay, conditions: Table 2, Ar1-A contains an amido or indolo group; read-out: IC 50

Row | Structure (SMILES) | IC50
58 | N/C(=N\CC1CCCCC1)c1c(O)nsc1Nc1ccccc1C(=O)NCC1CCCCC1 [E-1] | > 1000 nM
59 | N=C(NCCCCO)c1c(O)nsc1Nc1ccc(C(=O)Nc2ccccc2)cc1 [E-6] | > 1000 nM
60 | CC(C)NC(=N)c1c(O)nsc1Nc1ccc(C(=O)Nc2ccccc2)cc1 [E-7] | > 1000 nM
61 | N=C(NCCO)c1c(O)nsc1Nc1ccc(C(=O)Nc2ccccc2)cc1 [E-8] | 200 to 1000 nM
62 | CC(C)NC(=N)c1c(O)nsc1Nc1ccc(C(=O)NC(C)C)cc1 [E-9] | 200 to 1000 nM
63 | N=C(NCCO)c1c(O)nsc1Nc1ccc(C(=O)N2CCc3ccccc32)cc1 [E-13] | > 1000 nM
64 | N=C(NCCCCO)c1c(O)nsc1Nc1ccc(C(=O)NCCCCO)cc1 [E-15] | > 1000 nM
65 | CC(C)NC(=N)c1c(O)nsc1Nc1ccc(C(=O)N2CCN(C)CC2)cc1 [E-19] | > 1000 nM
66 | N=C(N)c1c(O)nsc1Nc1ccc(C(=O)N2CCc3cc(Br)ccc32)cc1 [E-20] | 1 to 200 nM

Results, then the molecule that gave them:

Row | IC50 | Structure (SMILES)
67 | > 1000 nM | N=C(NCC1CCCCC1)c1c(O)nsc1Nc1ccc(S(=O)(=O)Nc2ccccc2)cc1 [E-2]
68 | > 1000 nM | N=C(NCC1CCCCC1)c1c(O)nsc1Nc1ccc(C(=O)Nc2ccccc2)cc1 [E-4]
69 | > 1000 nM | CC(CO)NC(=N)c1c(O)nsc1Nc1ccc(C(=O)Nc2ccccc2)cc1 (stereo not shown) [E-5]
70 | 1 to 200 nM | CC(C)NC(=N)c1c(O)nsc1Nc1ccc(C(=O)N2CCc3ccccc32)cc1 [E-10]
71 | 1 to 200 nM | N=C(NCCCO)c1c(O)nsc1Nc1ccc(C(=O)N2CCc3ccccc32)cc1 [E-11]
72 | 200 to 1000 nM | N=C(NCC(O)CO)c1c(O)nsc1Nc1ccc(C(=O)N2CCc3ccccc32)cc1 (stereo not shown) [E-12]
73 | > 1000 nM | N=C(NCCCCO)c1c(O)nsc1Nc1ccc(C(=O)N2CCc3ccccc32)cc1 [E-14]
74 | 1 to 200 nM | CC(CO)NC(=N)c1c(O)nsc1Nc1ccc(C(=O)N2CCc3ccccc32)cc1 (stereo not shown) [E-16]
75 | > 1000 nM | CC(CO)NC(=N)c1c(O)nsc1Nc1ccc(C(=O)N2CCN(C)CC2)cc1 (stereo not shown) [E-17]
76 | > 1000 nM | CN1CCN(C(=O)c2ccc(Nc3snc(O)c3C(=N)NCCO)cc2)CC1 [E-18]
77 | 200 to 1000 nM | CNC(=N)c1c(O)nsc1Nc1ccc(C(=O)N2CCc3cc(Cl)ccc32)cc1 [E-21]
78 | > 1000 nM | CNC(=N)c1c(O)nsc1Nc1ccc(C(=O)N2CCc3cc(F)ccc32)cc1 [E-22]

Same assay, conditions: Table 4, R' is (CH2)1 or 2-G; read-out: IC50

Row | IC50 | Structure (SMILES)
79 | 100 to 500 nM | N=C(NCc1ccccc1)c1c(O)nsc1Nc1ccc(C(=O)c2ccccc2)cc1
